This is an account of results in US11851449B2, “Heterocyclic amide compounds having an RORvt inhibitory action” (TAKEDA PHARMACEUTICAL COMPANY LIMITED, priority 2013, dated 2023).

Assay [1] deals with T1, RORγt (Homo sapiens, UniProt P51449).
T1 sequence (P51449 1-497 isoform P51449-2): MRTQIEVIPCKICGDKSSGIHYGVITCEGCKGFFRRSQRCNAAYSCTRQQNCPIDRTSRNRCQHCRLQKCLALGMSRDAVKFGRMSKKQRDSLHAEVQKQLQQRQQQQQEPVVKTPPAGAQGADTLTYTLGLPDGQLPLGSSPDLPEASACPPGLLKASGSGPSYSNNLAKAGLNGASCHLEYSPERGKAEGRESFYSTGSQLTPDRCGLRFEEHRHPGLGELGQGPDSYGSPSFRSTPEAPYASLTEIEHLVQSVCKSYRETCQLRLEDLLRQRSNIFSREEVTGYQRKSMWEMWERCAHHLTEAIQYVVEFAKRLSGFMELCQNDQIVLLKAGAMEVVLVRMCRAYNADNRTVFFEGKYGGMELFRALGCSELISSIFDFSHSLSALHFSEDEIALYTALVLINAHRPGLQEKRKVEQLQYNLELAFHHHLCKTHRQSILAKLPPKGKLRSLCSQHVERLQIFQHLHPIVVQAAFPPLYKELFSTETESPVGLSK
The experiment in a line: Jurkat reporter test (human IL-17 ROR response element luciferase reporter). In kind it is cell-based. The following applies: Jurkat, read-out: luminescence level inhibitory rate (%) at test compound 3 μM. How it is done: The Jurkat cells used for the reporter test were cultured in a culture medium (RPMI (Invitrogen), 10% FCS (AusGeneX), 100 U/mL penicillin, 100 μg/mL streptomycin). On the day of the test, 4×10^7 cells were recovered by a centrifugal operation (1000 rpm, 5 min.) and suspended in PBS (phosphate buffered saline) (Invitrogen). Thereafter, the cells were recovered again by a centrifugal operation, and suspended in 2 mL of R buffer (NEON transfection kit, Invitrogen). […] Gene transfer was performed by Electroporation apparatus (NEON, Invitrogen) under the conditions of pulse voltage 1350 V, interval 10 milliseconds, number of times 3. The cells after gene transfer were suspended in 40 mL of a reaction medium (RPMI, 10% Lipid reduced FCS (HyClone), 10 mM HEPES (pH 7.5), 100 U/mL penicillin, 100 μg/mL streptomycin, 5 μM lovastatin), and plated in a 96 well plate by 90 μL. A test compound diluted with the reaction medium was added by 10 μL, and the cells were cultured overnight in an incubator. Bright-Glo (Promega) was added by 100 μL, and the mixture was stirred at room temperature for 10 min, and the luminescence level was measured by Envision (PerkinElmer).
On the technique in general: In a reporter assay the amount or activity of a reporter protein is the signal.

Assay [2] has as its target T1, RORγt. The experiment in a line: RORγt binding test (TR-FRET, fluorescent-labeled cholesterol). The settings on record: read-out: binding inhibitory rate (%) of fluorescent-labeled cholesterol to RORγt at test compound 1 μM. The protocol: The binding activity of the test compound to RORγt was measured by a time resolved fluorescence resonance energy transfer method (TR-FRET) utilizing histidine-tagged RORγt, fluorescent-labeled cholesterol (BODIPY-cholesterol, AVIVA), and terbium-labeled anti-histidine tag antibody (Invitrogen). First, a test compound diluted with an assay buffer (20 mM Tris-HCl (pH 7.5), 100 mM NaCl, 1 mM DTT, 0.1% BSA) was added to a 384 well plate by 3 μL. Then, RORγt diluted with an assay buffer to 240 nM was added by 3 μL, after which fluorescent-labeled cholesterol diluted with the assay buffer to 12 μM was added by 3 μL, and the mixture was stood at room temperature for 20 min. Thereafter, a terbium-labeled anti-histidine tag antibody diluted with the assay buffer to 8 nM was added by 3 μL. The mixture was stood at room temperature for 20 min, and fluorescence intensity (excitation wavelength 320 nm, fluorescence wavelength 520 nm, delay time 100 microseconds) was measured by Envision (PerkinElmer).
(TR-FRET usually uses a lanthanide donor and a delayed reading to cut background.)

Assay [3] concerns the target T1, RORγt. The experiment in a line: Cofactor recruitment test (Alpha Screen, biotinylated SRC-1 peptide). The settings on record: read-out: signal value inhibitory rate (%) at test compound 1 μM. It is filed as biochemical. How it is done: Cofactor Recruitment Test
Cofactor recruitment test was performed by Alpha Screen (Histidine Detection Kit, PerkinElmer) method. First, a test compound was diluted with an assay buffer (50 mM Tris-HCl (pH 7.5), 50 mM KCl, 1 mM DTT, 0.1% BSA) and added to a 384 well plate by 5 μL. […] The mixture was stood in a dark place for 1 hr, and the signal value was measured by Envision (PerkinElmer).

As to `COc1ccc(C(NC(=O)C2CNC(=O)C2)C(=O)Nc2cc(F)c([Si](C)(C)C)c(F)c2)cc1` (stereo not drawn) [Example 37, N-(2-((3,5-difluoro-4-(trimethylsilyl)phenyl)amino)-1-(4-methoxyphenyl)-2-oxoethyl)-5-oxopyrrolidine-3-carboxamide], the inhibition at 3 µM on RORγt [1] turned out to be 98.5%. The results for the inhibition at 1 µM on RORγt [2] and on RORγt [3] were 101% and 93.6%, respectively.

As to `COCc1ccc(C(C(=O)Nc2cc(F)c([Si](C)(C)C)c(F)c2)N(C)C(=O)c2cc(O)no2)cc1` (stereo not drawn) [Example 38, N-(2-((3,5-difluoro-4-(trimethylsilyl)phenyl)amino)-1-(4-(methoxymethyl)phenyl)-2-oxoethyl)-3-hydroxy-N-methyl-1,2-oxazole-5-carboxamide], the inhibition at 3 µM at RORγt [1] is 100%. The inhibition at 1 µM came to 102% at RORγt [2] and 99.7% at RORγt [3].

On to `COCc1ccc(C(NC(=O)Cc2cc(O)no2)C(=O)Nc2cc(F)c([Si](C)(C)C)c(F)c2)cc1` (stereo not drawn) [Example 39, N-(3,5-difluoro-4-(trimethylsilyl)phenyl)-2-(((3-hydroxy-1,2-oxazol-5-yl)acetyl)amino)-2-(4-(methoxymethyl)phenyl)acetamide], for which, on RORγt [1], the inhibition at 3 µM was found to be 100%. In addition, the inhibition at 1 µM turned out to be 103% at RORγt [2] and 99.6% on RORγt [3].

Turning to `COCc1ccc(C(NC(=O)Cn2cnccc2=O)C(=O)Nc2cc(F)c([Si](C)(C)C)c(F)c2)cc1` (stereo not drawn) [Example 40, N-(3,5-difluoro-4-(trimethylsilyl)phenyl)-2-(4-(methoxymethyl)phenyl)-2-(((6-oxopyrimidin-1(6H)-yl)acetyl)amino)acetamide], the inhibition at 3 µM at RORγt [1] stood at 100%. For the same compound, the inhibition at 1 µM at RORγt [2] turned out to be 101%; on RORγt [3], 98.7%.

For the compound `COc1ccc(C(NC(=O)N2CC(O)C2)C(=O)Nc2cc(F)c([Si](C)(C)C)c(F)c2)cc1` (stereo not drawn) [Example 41, N-(2-((3,5-difluoro-4-(trimethylsilyl)phenyl)amino)-1-(4-methoxyphenyl)-2-oxoethyl)-3-hydroxyazetidine-1-carboxamide], the inhibition at 3 µM on RORγt [1] turned out to be 100%. The inhibition at 1 µM at RORγt [2] was found to be 101%; on RORγt [3], 94.4%.

For the compound `COc1ccc(C(NC(=O)C2CNC(=O)C2)C(=O)Nc2cc(F)c([Si](C)(C)C)cc2F)cc1` (stereo not drawn) [Example 42, N-(2-((2,5-difluoro-4-(trimethylsilyl)phenyl)amino)-1-(4-methoxyphenyl)-2-oxoethyl)-5-oxopyrrolidine-3-carboxamide], the inhibition at 3 µM at RORγt [1] amounted to 99.1%. Moreover, the inhibition at 1 µM came to 102% at RORγt [2] and 88.5% at RORγt [3].

Consider `COCc1ccc(C(C(=O)Nc2cc(F)c([Si](C)(C)C)cc2F)N(C)C(=O)c2cc(O)no2)cc1` (stereo not drawn) [Example 43, N-(2-((2,5-difluoro-4-(trimethylsilyl)phenyl)amino)-1-(4-(methoxymethyl)phenyl)-2-oxoethyl)-3-hydroxy-N-methyl-1,2-oxazole-5-carboxamide], for which the inhibition at 3 µM on RORγt [1] turned out to be 100%. The inhibition at 1 µM at RORγt [2] was 102%; on RORγt [3], 96.1%.

As to `COCc1ccc(C(NC(=O)Cc2nnc(C)o2)C(=O)Nc2cc(F)c([Si](C)(C)C)cc2F)cc1` (stereo not drawn) [Example 44, N-(2,5-difluoro-4-(trimethylsilyl)phenyl)-2-(4-(methoxymethyl)phenyl)-2-(((5-methyl-1,3,4-oxadiazol-2-yl)acetyl)amino)acetamide], the inhibition at 3 µM at RORγt [1] turned out to be 102%. Besides, the values for the inhibition at 1 µM on RORγt [2] and on RORγt [3] were 102% and 95.7%, respectively.

Consider `COCc1ccc(C(NC(=O)Cn2cnccc2=O)C(=O)Nc2cc(F)c([Si](C)(C)C)cc2F)cc1` (stereo not drawn) [Example 45, N-(2,5-difluoro-4-(trimethylsilyl)phenyl)-2-(4-(methoxymethyl)phenyl)-2-(((6-oxopyrimidin-1(6H)-yl)acetyl)amino)acetamide], for which the inhibition at 3 µM at RORγt [1] was 101%. Also, the inhibition at 1 µM was found to be 102% on RORγt [2] and 94.1% at RORγt [3].

For `COc1ccc(C(NC(=O)Cn2ncc3ccccc32)C(=O)Nc2cc(F)c([Si](C)(C)C)cc2F)cc1` (stereo not drawn) [Example 46, N-(2,5-difluoro-4-(trimethylsilyl)phenyl)-2-((1H-indazol-1-ylacetyl)amino)-2-(4-methoxyphenyl)acetamide], the inhibition at 3 µM on RORγt [1] is 101%. Also, the inhibition at 1 µM on RORγt [2] came to 99.5%; at RORγt [3] it was 87.2%.

`COCc1ccc(C(NC(=O)Cn2ncc3ccccc32)C(=O)Nc2cc(F)c([Si](C)(C)C)cc2F)cc1` (stereo not drawn) [Example 47, N-(2,5-difluoro-4-(trimethylsilyl)phenyl)-2-((1H-indazol-1-ylacetyl)amino)-2-(4-(methoxymethyl)phenyl)acetamide]: the inhibition at 3 µM on RORγt [1] was found to be 100%. Besides, the inhibition at 1 µM stood at 100% on RORγt [2] and 92.4% at RORγt [3].

On to `COc1ccc(C(C(=O)Nc2ccc([Si](C)(C)C)c(Cl)c2)N(C)C(=O)c2cc(O)no2)cc1` (stereo not drawn) [Example 48, N-(2-((3-chloro-4-(trimethylsilyl)phenyl)amino)-1-(4-methoxyphenyl)-2-oxoethyl)-3-hydroxy-N-methyl-1,2-oxazole-5-carboxamide], for which the inhibition at 3 µM at RORγt [1] is 95.7%. The inhibition at 1 µM at RORγt [2] amounted to 103%; on RORγt [3], 73%.

As for `COCc1ccc([C@@H](NC(=O)[C@@H]2CNC(=O)C2)C(=O)Nc2ccc([Si](C)(C)C)c(F)c2)cc1` [Example 49, (3S)—N-((1R)-2-((3-fluoro-4-(trimethylsilyl)phenyl)amino)-1-(4-(methoxymethyl)phenyl)-2-oxoethyl)-5-oxopyrrolidine-3-carboxamide], the inhibition at 3 µM at RORγt [1] was 98.4%. Further, the inhibition at 1 µM came out at 101% at RORγt [2] and 96.9% at RORγt [3].

As to `COc1ccc([C@@H](NC(=O)[C@@H]2CNC(=O)C2)C(=O)Nc2ccc([Si](C)(C)C)c(F)c2)cc1` [Example 50, (3S)—N-((1R)-2-((3-fluoro-4-(trimethylsilyl)phenyl)amino)-1-(4-methoxyphenyl)-2-oxoethyl)-5-oxopyrrolidine-3-carboxamide], the inhibition at 3 µM at RORγt [1] was 98%. For the same compound, the inhibition at 1 µM was determined as 102% at RORγt [2] and 91.5% on RORγt [3].

On to `COCc1ccc([C@@H](NC(=O)[C@@H]2CNC(=O)C2)C(=O)Nc2cc(F)c([Si](C)(C)C)cc2F)cc1` [Example 51, (3S)—N-((1R)-2-((2,5-difluoro-4-(trimethylsilyl)phenyl)amino)-1-(4-(methoxymethyl)phenyl)-2-oxoethyl)-5-oxopyrrolidine-3-carboxamide], for which the inhibition at 3 µM at RORγt [1] came out at 98%. Further, the inhibition at 1 µM on RORγt [2] came to 102%; at RORγt [3], 97.3%.

As to `COCc1ccc([C@@H](NC(=O)[C@@H]2CNC(=O)C2)C(=O)Nc2cc(F)c([Si](C)(C)C)c(F)c2)cc1` [Example 52, (3S)—N-((1R)-2-((3,5-difluoro-4-(trimethylsilyl)phenyl)amino)-1-(4-(methoxymethyl)phenyl)-2-oxoethyl)-5-oxopyrrolidine-3-carboxamide], the inhibition at 3 µM at RORγt [1] was found to be 100%. Besides, the inhibition at 1 µM at RORγt [2] was found to be 102%; at RORγt [3] it was 98.7%.
